Data: ChEMBL document CHEMBL1201862, “PubChem BioAssay data set” (2004)
Calls of active or inactive are those of the source.

How the values were obtained:
[1] = biological target: T1, Insulin-degrading enzyme (Homo sapiens, UniProt P14735); experiment: recombinant IDE activation, cell-free – biochemical, fluorescence polarization, counter-screen for IDE activator project, dose response (AID 588681)
T1 sequence (P14735 whole entry): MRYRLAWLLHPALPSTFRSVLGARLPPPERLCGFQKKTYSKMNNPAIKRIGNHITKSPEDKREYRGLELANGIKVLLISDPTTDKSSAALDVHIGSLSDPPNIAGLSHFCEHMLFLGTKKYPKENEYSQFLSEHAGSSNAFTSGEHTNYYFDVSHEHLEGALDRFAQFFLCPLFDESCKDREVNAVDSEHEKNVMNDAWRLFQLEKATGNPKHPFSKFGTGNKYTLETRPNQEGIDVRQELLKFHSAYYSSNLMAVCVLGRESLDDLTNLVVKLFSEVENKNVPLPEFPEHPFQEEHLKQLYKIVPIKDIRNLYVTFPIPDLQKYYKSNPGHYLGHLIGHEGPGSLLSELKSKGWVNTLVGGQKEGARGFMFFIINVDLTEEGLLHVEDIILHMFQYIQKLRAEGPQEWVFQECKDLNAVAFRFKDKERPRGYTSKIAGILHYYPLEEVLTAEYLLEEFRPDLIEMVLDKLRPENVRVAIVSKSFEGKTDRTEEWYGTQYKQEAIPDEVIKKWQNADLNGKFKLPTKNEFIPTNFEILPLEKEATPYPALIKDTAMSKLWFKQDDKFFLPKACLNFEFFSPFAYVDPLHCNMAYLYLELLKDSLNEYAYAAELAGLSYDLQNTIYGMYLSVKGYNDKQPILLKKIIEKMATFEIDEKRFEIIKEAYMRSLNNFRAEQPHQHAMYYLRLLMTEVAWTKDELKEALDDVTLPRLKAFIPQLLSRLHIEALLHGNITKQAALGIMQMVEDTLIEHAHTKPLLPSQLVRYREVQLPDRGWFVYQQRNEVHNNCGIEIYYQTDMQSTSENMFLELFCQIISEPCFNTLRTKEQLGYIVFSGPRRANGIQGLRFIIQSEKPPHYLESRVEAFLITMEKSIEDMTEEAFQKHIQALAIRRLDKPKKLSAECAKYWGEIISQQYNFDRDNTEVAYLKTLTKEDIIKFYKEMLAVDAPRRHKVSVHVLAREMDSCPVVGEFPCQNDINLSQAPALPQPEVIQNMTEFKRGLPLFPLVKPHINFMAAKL

[2] = biological target: T1, Insulin-degrading enzyme; experiment: cellular IDE activation of Abeta substrate cleavage – fluorescence polarization, HEK cells, dose response (AID 588439); assay type: functional, cell-based
[3] = test system: HEK293; experiment: membrane integrity loss in HEK cells – cell-based, fluorescence, cytotoxicity control for IDE activator project, dose response (AID 588440); assay type: functional; details: Homo sapiens;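 note: cytotoxicity by LDH release measuring loss of membrane integrity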
[4] = test system: CHO; experiment: CHO cell viability loss, potency – luminescence, cytotoxicity control for TLR9-MyD88 binding inhibitor project, dose response (AID 588339); assay type: functional, cell-based, hamster; details: Cricetulus griseus;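 note: CHO cells stably coexpressing TLR9 and MyD88 fusions from primary screen; compound exposure lasted 48 hours before viability readout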
[5] = biological target: Beta-lactamase (Pseudomonas aeruginosa, UniProt Q79MP6);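 note: biochemical dose-response test of metallo-beta-lactamase enzyme inhibition, read out by epi-absorbance; purified recombinant IMP-1 metallo-beta-lactamase with nitrocefin as substrate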
Beta-lactamase (Pseudomonas aeruginosa, UniProt Q79MP6), sequence (Q79MP6 whole entry): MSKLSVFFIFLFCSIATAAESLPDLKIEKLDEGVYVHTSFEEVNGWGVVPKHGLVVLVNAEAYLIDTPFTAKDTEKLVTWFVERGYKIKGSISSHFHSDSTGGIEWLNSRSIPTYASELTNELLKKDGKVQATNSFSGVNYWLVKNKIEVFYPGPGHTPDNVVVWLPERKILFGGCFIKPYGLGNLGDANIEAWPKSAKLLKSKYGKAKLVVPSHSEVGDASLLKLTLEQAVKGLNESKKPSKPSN

[6] = test system: HEK293; experiment: optical interference in Abeta FP readout, dose response, artefact control for IDE activator project, biochemical, fluorescence polarization (AID 588442); assay type: functional, cell-based; details: Homo sapiens
[7] = biological target: Beta-lactamase (Salmonella choleraesuis (strain SC-B67), UniProt Q5J463)
Beta-lactamase (Salmonella choleraesuis (strain SC-B67), UniProt Q5J463), sequence (Q5J463 whole entry): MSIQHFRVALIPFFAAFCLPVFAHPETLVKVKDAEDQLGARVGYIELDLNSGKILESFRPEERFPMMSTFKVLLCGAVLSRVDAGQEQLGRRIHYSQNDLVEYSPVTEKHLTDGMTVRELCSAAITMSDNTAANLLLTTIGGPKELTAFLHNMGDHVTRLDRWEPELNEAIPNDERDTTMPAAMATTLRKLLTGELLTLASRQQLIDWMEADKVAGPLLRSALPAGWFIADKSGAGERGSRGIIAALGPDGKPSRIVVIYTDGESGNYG

[8] = biological target: Latent membrane protein 1 (Human herpesvirus 4 (strain B95-8), UniProt P03230); experiment: LMP1 TES1 pathway selectivity over dsRED control – imaging, HEK293T, dual-color eGFP/dsRED, cherry-picks, selectivity assay for LMP1 NF-kB inhibitor project, dose response (AID 588398); assay type: functional, cell-based
Latent membrane protein 1, sequence (P03230 whole entry, the tested form may be a part): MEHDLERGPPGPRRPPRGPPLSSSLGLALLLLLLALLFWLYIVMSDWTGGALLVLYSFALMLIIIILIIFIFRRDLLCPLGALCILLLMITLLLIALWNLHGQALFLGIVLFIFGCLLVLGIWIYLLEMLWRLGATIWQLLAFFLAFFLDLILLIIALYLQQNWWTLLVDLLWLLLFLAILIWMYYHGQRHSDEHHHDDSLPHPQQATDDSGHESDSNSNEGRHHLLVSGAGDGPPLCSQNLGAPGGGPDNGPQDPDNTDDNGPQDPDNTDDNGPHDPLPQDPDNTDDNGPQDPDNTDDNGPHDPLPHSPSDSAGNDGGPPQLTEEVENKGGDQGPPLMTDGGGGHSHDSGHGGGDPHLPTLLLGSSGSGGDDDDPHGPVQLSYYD

[9] = biological target: T2, RNA-binding protein pos-1 (Caenorhabditis elegans, UniProt G5EF15); experiment: disruptors of C. elegans POS-1 RNA interaction – biochemical, fluorescence polarization, dose response (AID 1964);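 note: purified POS-1 fused to maltose binding protein made in E. coli; potency of compounds blocking POS-1 binding to fluorescent RNA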
T2 sequence (G5EF15 whole entry): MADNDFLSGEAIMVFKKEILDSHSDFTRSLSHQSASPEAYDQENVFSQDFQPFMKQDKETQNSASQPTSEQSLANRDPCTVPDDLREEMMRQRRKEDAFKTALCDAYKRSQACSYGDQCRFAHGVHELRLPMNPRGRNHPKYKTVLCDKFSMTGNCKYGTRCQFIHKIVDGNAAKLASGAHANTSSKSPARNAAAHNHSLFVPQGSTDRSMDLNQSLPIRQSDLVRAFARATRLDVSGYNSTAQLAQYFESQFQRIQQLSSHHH

[10] = test system: HEK293; experiment: EBV LMP1 TES2 canonical NF-kB signalling blockers – cell-based, HEK293, luciferase, cherry-pick, dose response (AID 588343); assay type: functional; details: Homo sapiens
[11] = Trypanosoma cruzi growth suppression in host cells – NIH3T3 host cells, beta-gal luminescence, confirmation (AID 2044); assay type: functional, cell-based;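 note: intracellular parasites grown in NIH/3T3 mouse fibroblasts as host cells; luminescent beta-galactosidase reporter signal from transgenic T. cruzi replicating inside host cells; inhibitors lower the luminescence signal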
[12] = biological target: T3, Protein skinhead-1 (Caenorhabditis elegans, UniProt P34707); assay type: functional
T3 sequence (P34707 whole entry): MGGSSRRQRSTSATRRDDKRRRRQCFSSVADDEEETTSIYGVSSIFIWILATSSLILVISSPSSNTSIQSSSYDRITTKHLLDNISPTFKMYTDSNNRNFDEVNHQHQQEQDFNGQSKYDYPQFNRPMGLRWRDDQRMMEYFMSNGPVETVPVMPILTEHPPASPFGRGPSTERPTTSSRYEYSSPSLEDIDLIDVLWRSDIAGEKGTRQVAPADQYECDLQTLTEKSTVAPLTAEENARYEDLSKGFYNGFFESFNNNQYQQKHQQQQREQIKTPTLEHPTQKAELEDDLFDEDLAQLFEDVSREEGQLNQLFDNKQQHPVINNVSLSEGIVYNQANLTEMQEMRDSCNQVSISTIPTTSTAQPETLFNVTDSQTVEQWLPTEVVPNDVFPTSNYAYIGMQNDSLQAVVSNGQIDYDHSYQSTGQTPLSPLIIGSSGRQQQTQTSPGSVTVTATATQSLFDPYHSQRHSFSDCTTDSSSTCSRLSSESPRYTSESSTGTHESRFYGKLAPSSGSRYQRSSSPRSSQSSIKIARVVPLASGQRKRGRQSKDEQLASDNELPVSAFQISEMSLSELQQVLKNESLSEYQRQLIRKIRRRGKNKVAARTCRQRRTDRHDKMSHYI

[13] = NIH3T3 cell viability loss – ATP luminescence, mouse fibroblasts, counter-screen, dose response (AID 2010); assay type: functional, cell-based;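 note: cells exposed to compound for about 90 hours before reading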
[14] = HEK-293T cell viability reduction – luminescence, B-cell screen hits, cytotoxicity control for BCR NF-kB inhibitor project, dose response (AID 489021); assay type: functional, cell-based;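 note: HEK-293T cells carrying an NF-kB luciferase reporter; cells exposed to compound for about 14 hours before viability readout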
[15] = biological target: T4, Zinc finger protein mex-5 (Caenorhabditis elegans, UniProt Q9XUB2); experiment: potency of MEX-5 RNA-binding blockers – biochemical, C. elegans, fluorescence polarization, dose response (AID 1960)
T4 sequence (Q9XUB2 whole entry): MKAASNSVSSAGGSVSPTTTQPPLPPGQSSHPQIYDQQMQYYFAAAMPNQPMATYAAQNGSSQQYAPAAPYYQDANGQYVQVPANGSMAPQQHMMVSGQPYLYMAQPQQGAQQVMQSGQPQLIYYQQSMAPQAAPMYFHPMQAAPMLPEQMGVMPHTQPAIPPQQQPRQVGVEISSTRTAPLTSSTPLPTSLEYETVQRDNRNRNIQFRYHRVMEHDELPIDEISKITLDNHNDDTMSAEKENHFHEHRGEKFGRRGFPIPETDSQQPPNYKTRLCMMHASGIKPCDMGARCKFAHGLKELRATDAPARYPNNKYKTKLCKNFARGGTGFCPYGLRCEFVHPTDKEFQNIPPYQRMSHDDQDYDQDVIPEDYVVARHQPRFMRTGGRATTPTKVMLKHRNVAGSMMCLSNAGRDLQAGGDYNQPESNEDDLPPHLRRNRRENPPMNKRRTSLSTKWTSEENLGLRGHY

[16] = biological target: T5, High affinity choline transporter 1 (Homo sapiens, UniProt Q9GZV3); experiment: human choline transporter blockers, potency – cell-based, 10-point CRC, membrane potential dye, dose response (AID 588401); assay type: functional;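 note: membrane potential dye fluorescence of choline-evoked depolarization via CHT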
T5 sequence (Q9GZV3 whole entry): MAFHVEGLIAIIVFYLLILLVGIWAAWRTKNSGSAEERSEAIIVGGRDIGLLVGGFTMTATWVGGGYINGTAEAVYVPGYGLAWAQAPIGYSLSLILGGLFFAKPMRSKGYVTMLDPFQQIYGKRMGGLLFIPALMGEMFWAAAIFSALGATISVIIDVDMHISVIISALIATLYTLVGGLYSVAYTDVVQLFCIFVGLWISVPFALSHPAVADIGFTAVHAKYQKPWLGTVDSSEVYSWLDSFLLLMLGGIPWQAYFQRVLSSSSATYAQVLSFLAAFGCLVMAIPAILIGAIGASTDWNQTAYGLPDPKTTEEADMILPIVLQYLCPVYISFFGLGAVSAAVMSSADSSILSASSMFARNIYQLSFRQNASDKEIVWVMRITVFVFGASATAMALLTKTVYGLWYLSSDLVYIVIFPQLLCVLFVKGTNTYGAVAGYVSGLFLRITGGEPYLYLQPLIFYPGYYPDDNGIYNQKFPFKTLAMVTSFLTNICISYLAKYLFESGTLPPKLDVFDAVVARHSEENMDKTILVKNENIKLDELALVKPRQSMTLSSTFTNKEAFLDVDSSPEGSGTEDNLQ

[17] = biological target: T5, High affinity choline transporter 1; experiment: human choline transporter blockers, potency – cell-based, 5-point CRC, membrane potential dye, dose response (AID 504840); assay type: functional
[18] = viability of PTEN-deleted HCT116 cells – cell-based, HCT116 PTEN knockout, dose response (AID 1047); assay type: functional;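 note: HCT116 colon tumor cells with PTEN knocked out; cells exposed to compound for 60 hours before readout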
[19] = non-specific 3'UTR reporter inhibition in Clone20-Shn3RL – cell-based, Renilla luciferase, cherry-picked, counter-screen for Shn3 inhibitor project, dose response (AID 624133); assay type: functional
[20] = test system: INS1; experiment: INS-1E survival protection against cytokine death – cell-based, luminescence, retest, dose response (AID 449756); assay type: functional; details: Rattus norvegicus;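 note: cell death triggered by IL-1 beta plus TNF-alpha plus IFN-gamma mixture; protective hits raise ATP signal compared with cytokine alone wells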
[21] = Luminescence Cell-Based Dose Retest to Confirm Inhibitors of Cancer Stem Cells. [Related pubchem assays (depositor defined):AID2717, AID2721]; assay type: functional; details: Homo sapiens
[22] = reduction of Shn3 3'UTR-driven luciferase in osteoblasts – cell-based, Clone20 osteoblasts, firefly luciferase, cherry-picked, dose response (AID 624132); assay type: functional;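 note: firefly luciferase luminescence from reporter carrying the Shn3 3'UTR in osteoblasts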
[23] = loss of viability in HepG2 cells – cell-based, CellTiter-Glo, cherry-picked, cytotoxicity control for Shn3 inhibitor project, dose response (AID 624134); assay type: functional
[24] = biological target: T6, Cytochrome P450 1A2 (Homo sapiens, UniProt P05177);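 note: PubChem cytochrome P450 panel assay, CYP1A2 panel member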
T6 sequence (P05177 whole entry): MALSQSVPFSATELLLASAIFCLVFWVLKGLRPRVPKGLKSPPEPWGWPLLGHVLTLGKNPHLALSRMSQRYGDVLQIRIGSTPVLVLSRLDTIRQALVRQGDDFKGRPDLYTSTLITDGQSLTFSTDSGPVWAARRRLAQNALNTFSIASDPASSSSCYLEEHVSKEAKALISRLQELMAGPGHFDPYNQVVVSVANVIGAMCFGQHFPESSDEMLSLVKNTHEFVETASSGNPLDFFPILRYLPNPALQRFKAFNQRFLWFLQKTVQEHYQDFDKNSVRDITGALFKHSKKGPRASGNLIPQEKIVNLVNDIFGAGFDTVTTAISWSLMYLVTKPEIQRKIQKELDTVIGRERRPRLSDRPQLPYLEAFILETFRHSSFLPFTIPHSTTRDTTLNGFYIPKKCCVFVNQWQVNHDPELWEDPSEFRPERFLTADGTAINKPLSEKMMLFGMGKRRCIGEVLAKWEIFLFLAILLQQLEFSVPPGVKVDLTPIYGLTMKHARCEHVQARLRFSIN

[25] = viability of HCT116 lacking mutant beta-catenin – cell-based, human colon tumor, dose response (AID 1045); assay type: functional;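 note: HCT116 colon tumor cells with beta catenin knocked out; cells exposed to compound for 60 hours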

CCCCNc1ccc2c3c(cccc13)C(=O)N(CCCC)C2=O
inactive: EC50 [1] > 54.7 µM | EC50 [2] > 54.7 µM | IC50 [3] > 89.1 µM | IC50 [4] > 49.7 µM | IC50 [5] 37.2 µM | EC50 [6] 12.1 µM
active: IC50 [7] 3.89 µM

CCc1ccc(/C=C2\SC(=S)N(CCCC(=O)Nc3ccccn3)C2=O)cc1
inactive: IC50 [12] > 100 µM | IC50 [14] > 80 µM
active: AC50 [8] 16.2 µM | EC50 [9] 27.1 µM | AC50 [10] 4.92 µM | EC50 [11] 1.83 µM | EC50 [13] 54.8 µM | EC50 [15] 24.6 µM

CCCCn1nc2cc(C(=O)N[C@H](C)C3CCCCC3)ccc2c1OCC
active: IC50 [16] 4.47 µM | IC50 [17] 7.76 µM

COc1ccc(Cn2c(SCc3ccccc3C)nc3cc(OC)c(OC)cc3c2=N)cc1
inactive: EC50 [1] > 54.7 µM | IC50 [3] 18.5 µM | EC50 [6] > 54.7 µM
active: EC50 [2] 9.39 µM | EC50 [18] 4.85 µM | AC50 [19] 16 µM | AC50 [20] 4.3 µM | AC50 [21] 2.71 µM | AC50 [22] 5.46 µM | AC50 [23] 12.8 µM | EC50 [25] 3.81 µM
inconclusive: AC50 [24] 15.8 µM
